Measured values published in publication PMC6151437, “Antibacterial Synthetic Peptides Derived from Bovine Lactoferricin Exhibit Cytotoxic Effect against MDA-MB-468 and MDA-MB-231 Breast Cancer Cell Lines” (Molecules : A Journal of Synthetic Chemistry and Natural …, 2017).
Bridge positions count the residues as written; N and C are the ends. Square brackets hold non-standard residues; d marks the D form. Peptide text beside a SMILES is read from it. I, II: the chains in the order shown. Ahx = NCCCCCC(=O)O

Assays:
[1] = not given; remark: listed apart in the source

Compound	minimum concentration with maximum (optimal) cytotoxic effect [µM]	concentration of maximum cytotoxic effect [1] [µM]
N=C(N)NCCC[C@H](NC(=O)[C@H](Cc1c[nH]c2ccccc12)NC(=O)[C@H](CCC(N)=O)NC(=O)[C@H](Cc1c[nH]c2ccccc12)NC(=O)[C@H](CCCNC(=N)N)NC(=O)[C@@H](N)CCCNC(=N)N)C(=O)NCCCC[C@H](NC(=O)[C@H](CCCNC(=N)N)NC(=O)[C@H](Cc1c[nH]c2ccccc12)NC(=O)[C@H](CCC(N)=O)NC(=O)[C@H](Cc1c[nH]c2ccccc12)NC(=O)[C@H](CCCNC(=N)N)NC(=O)[C@@H](N)CCCNC(=N)N)C(=O)NCCCCCC(=O)N[C@@H](CSSC[C@H](NC(=O)CCCCCNC(=O)[C@H](CCCCNC(=O)[C@H](CCCNC(=N)N)NC(=O)[C@H](Cc1c[nH]c2ccccc12)NC(=O)[C@H](CCC(N)=O)NC(=O)[C@H](Cc1c[nH]c2ccccc12)NC(=O)[C@H](CCCNC(=N)N)NC(=O)[C@@H](N)CCCNC(=N)N)NC(=O)[C@H](CCCNC(=N)N)NC(=O)[C@H](Cc1c[nH]c2ccccc12)NC(=O)[C@H](CCC(N)=O)NC(=O)[C@H](Cc1c[nH]c2ccccc12)NC(=O)[C@H](CCCNC(=N)N)NC(=O)[C@@H](N)CCCNC(=N)N)C(N)=O)C(N)=O (I: H-RRWQWRK[Ahx]C-NH2 / II: H-RRWQWRK[Ahx]C-NH2 / III: H-RRWQWR / IV: H-RRWQWR; amide I:7-III:C, II:7-IV:C; disulfide I:9-II:9)	22	–
CSCC[C@H](NC(=O)[C@H](CCCNC(=N)N)NC(=O)[C@H](Cc1c[nH]c2ccccc12)NC(=O)[C@H](CCC(N)=O)NC(=O)[C@H](Cc1c[nH]c2ccccc12)NC(=O)[C@H](CCCNC(=N)N)NC(=O)[C@@H](N)CCCNC(=N)N)C(=O)N[C@@H](CCCCN)C(=O)N[C@@H](CCCCN)C(=O)N[C@@H](CC(C)C)C(=O)NCC(=O)NCCCC[C@H](NC(=O)CNC(=O)[C@H](CC(C)C)NC(=O)[C@H](CCCCN)NC(=O)[C@H](CCCCN)NC(=O)[C@H](CCSC)NC(=O)[C@H](CCCNC(=N)N)NC(=O)[C@H](Cc1c[nH]c2ccccc12)NC(=O)[C@H](CCC(N)=O)NC(=O)[C@H](Cc1c[nH]c2ccccc12)NC(=O)[C@H](CCCNC(=N)N)NC(=O)[C@@H](N)CCCNC(=N)N)C(=O)NCCCCCC(N)=O (I: H-RRWQWRMKKLGK[Ahx]-NH2 / II: H-RRWQWRMKKLG; amide I:12-II:C)	–	30
